Reference: US20260102415A1, “COMPOSITIONS COMPRISING PRODRUGS OF HYDROXAMATE-BASED COMPOUNDS AND METHODS OF MAKING AND USING SAME” (Duke University, priority 2022, published 2026)
In brackets after ≈: the same amount, converted by molar mass.

Assays:
[1] = Maximum solubility in 5% Captisol by UV-Vis spectroscopy; format: physicochemical; settings: aqueous with cosolvent or surfactant or cyclodextrin, thermodynamic from solid, absorption at 290 nm, triplicate, averaged
Method: Maximum solubility of LPC233-phosphate-ProDrug was determined using UV-Vis spectroscopy. First, a sample of LPC-233-Phos-Pro in 5% Captisol was prepared at 1 mg/mL by dissolving 0.7 mg of compound in 700 μL of 5% Captisol and sonicating for 30 minutes. The sample was then serial diluted 2-fold to generate standard solutions ranging from 0.0625-1 mg/mL. The absorption of each sample at 290 nm was determined via nanodrop, and the values were plotted to generate a linear standard curve of y=3.0336x+0.09 with r^2=0.998 (v=Abs290 nm, x=[drug]mg/mL). Next, a sample of LPC-233-Phos-Pro was prepared based on an assumed concentration of 300 mg/mL in 5% Captisol and allowed to sonicate for 45 minutes. The sample was then vortexed and centrifuged to pellet any undissolved compound. The supernatant was removed and diluted an initial 30× to a theoretical max concentration of 10 mg/mL. From here, the solution was serial diluted 2-fold up to 256×. The absorption of each dilution at 290 nm was measured via nanodrop and values were plotted to the standard curve. These preparations and measurements were performed in triplicate and averaged. The final maximum solubility of LPC-233-Phos-Pro in 5% Captisol was determined to be ˜260±6 mg/mL. […]

[2] = system: Acinetobacter baumannii (ATCC 19606); experiment: Acinetobacter baumannii sepsis model in mice (survival); format: in vivo; settings: CD-1 mice; for overall survival: separate experiment comparing prodrug with parent compound; for mice surviving during treatment and post-treatment observation periods: dose response study
Method: A mice model was created to test the efficacy of LPC-233-Phos-Pro in an Acinetobacter baumannii sepsis model.
Method: Overnight culture of A. baumannii 19606 was inoculated into 50 mL fresh LB with 1:100 dilution. The culture was incubated at 37° C. with vigorous shaking until OD600 reached ˜0.5. The bacteria were harvested, washed, and re-suspended in PBS pH 7.4 buffer. Each CD-1 mouse at the age of 6-7 weeks was injected with about […] Acinetobacter baumannii (ATCC 19606) in a volume of 200 μL intraperitoneally. There were ten mice in each group (five male and five female). About 2 hours post infection, 200 μL of vehicle (5% Captisol dissolved in saline), or LPC-233-Phos-Pro in 5% Captisol at specified concentrations were injected intraperitoneally. 12 hours later, 200 μL of vehicle control or LPC-233-Phos-Pro solutions at desired concentrations were administrated via intraperitoneal injections every 12 hours (Q12H) for a total of ten IP injections. The mice were monitored for an additional 10 days and the percentages of survival were recorded. The same procedure was used in a separate experiment to compare the efficacy of LPC-233 and LPC-233-Phos-Pro.

[3] = Vehicle (Captisol or beta-cyclodextrin) concentration needed to formulate the 100 mg/kg dose; format: physicochemical; settings: dose level 100 mg/kg
Method: LPC-233 required 30-40% Captisol or beta-cyclodextrin to reach the dose level of 100 mg/kg and beyond. These concentrations of vehicle caused vehicle-related side effects and cannot be used in clinical formulations.

[4] = Maximum Tolerated 5-day Repeat dose in male CD-1 mice; format: in vivo; settings: 250 mg/kg/Q12H (500 mg/kg/day) IP over 5 days, 5% Captisol
Method: Additionally, the Maximum Tolerated 5-day Repeat dose of LPC-233-Phos-Pro was tested in male CD-1 mice (n=3). LPC-233-Phos-Pro was prepared in 5% Captisol and 200 μL of solution was administered via IP injection every 12 hours (Q12H) at doses of 250 mg/kg/Q12H (500 mg/kg/day) over the course of 5 days. The mice were weighed daily to monitor animal survival and weight loss.

| Compound | solubility at 45 min [1] | overall survival ([2]; 100 mg/kg Q12H IP) | Captisol or beta-cyclodextrin concentration required to reach the dose level of 100 mg/kg [3] | mice surviving during treatment and post-treatment observation periods ([2]; 30 mg/kg Q12H IP) | mice surviving during treatment and post-treatment observation periods ([2]; 100 mg/kg Q12H IP) | fitted ED50 (survival) ([2]; IP infection with A. baumannii 19606, IP dosing Q12H, ten injections, in 5% Captisol, dose response study 10, 30, 100 mg/kg) | animal survival [4] | weight loss [4] |
| --- | --- | --- | --- | --- | --- | --- | --- | --- |
| C[C@@](O)(C(F)F)[C@H](NC(=O)c1ccc(C#CC#CC2CC2)cc1)C(=O)NO [LPC-233, reference compound] | ~20 mg/mL (≈ 53.1 mM) | 70% | 30-40% |  |  |  |  |  |
| C[C@@](O)(C(F)F)[C@H](NC(=O)c1ccc(C#CC#CC2CC2)cc1)C(=O)NOP(=O)([O-])[O-].[Na+].[Na+] [LPC-233-Phos-Pro] | ~260 mg/mL | 100% | 5% | 90% | all mice | 5.5 mg/kg Q12H | All mice survived | < 10 % of initial body weight |
